# According to publication PMC7318034, “Safety, Pharmacokinetics, and Drug-Drug Interaction Potential of Intravenous Durlobactam, a β-Lactamase Inhibitor, in Healthy Subjects” (Antimicrobial Agents and Chemotherapy, 2020):
# Columns and labels:
# [1] = Safety and tolerability (adverse events, laboratory values, vital signs, ECG) in healthy subjects; format: in vivo, human
# Method: A routine physical examination, determination of vital signs (supine blood pressure, heart rate, respiratory rate, temperature), a 12-lead electrocardiogram (ECG), and clinical laboratory testing (serum chemistry, hematology, urinalysis) were performed at screening, at intervals during the study, and at the 14-day follow-up.
# The intent-to-treat (ITT) population included all randomized subjects. The safety population was all randomized subjects who received any study drug.
# renal transporter OAT1 = target: T1, renal transporter OAT1 (Homo sapiens, UniProt Q4U2R8); experiment: In vitro assessment of transporter interactions; format: in vitro ADME; conditions: data not published
# T1 sequence (Q4U2R8 1-563): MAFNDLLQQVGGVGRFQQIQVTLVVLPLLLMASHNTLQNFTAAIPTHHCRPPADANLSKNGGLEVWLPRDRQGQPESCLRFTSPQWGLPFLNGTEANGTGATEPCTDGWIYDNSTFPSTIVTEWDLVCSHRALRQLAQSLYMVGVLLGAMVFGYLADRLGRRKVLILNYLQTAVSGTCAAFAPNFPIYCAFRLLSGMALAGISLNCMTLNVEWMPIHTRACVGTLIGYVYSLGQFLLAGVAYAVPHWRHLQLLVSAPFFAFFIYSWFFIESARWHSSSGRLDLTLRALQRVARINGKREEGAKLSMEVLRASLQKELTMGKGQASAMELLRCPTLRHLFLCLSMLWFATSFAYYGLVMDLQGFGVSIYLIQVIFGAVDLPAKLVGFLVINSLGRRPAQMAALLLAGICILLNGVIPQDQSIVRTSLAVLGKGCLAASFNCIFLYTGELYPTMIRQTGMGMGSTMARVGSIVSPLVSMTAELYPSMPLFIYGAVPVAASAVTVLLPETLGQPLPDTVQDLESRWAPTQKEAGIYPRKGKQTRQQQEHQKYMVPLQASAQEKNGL
# [2] = Urine PK (urinary excretion, renal clearance) in healthy subjects; conditions: for CL renal: human, urine, intravenous, CLr
# [3] = all subjects receiving the treatment
# [4] = part C cohort 13, Day 5 (DUR 1 g + sulbactam 1 g)
# [5] = part A cohort 6, single 4 g, n=4
# [6] = part A cohort 7, single 8 g, n=5
# [7] = part A cohort 8 (elderly), single 1 g, n=5
# [8] = part B cohort 9, first 48 hours, dose over 48 hours 2.00 g (8 doses)
# [9] = part B cohort 9, following the final dose on Day 8, 0.250 g
# [10] = part B cohort 10, first 48 hours, dose over 48 hours 4.00 g (8 doses)
# [11] = part B cohort 10, following the final dose on Day 8, 0.500 g
# [12] = part B cohort 11, first 48 hours, dose over 48 hours 8.00 g (8 doses)
# [13] = part B cohort 11, following the final dose on Day 8, 1.000 g
# [14] = part B cohort 12, first 48 hours, dose over 48 hours 16.00 g (8 doses)
# [15] = part B cohort 12, following the final dose on Day 8, 2.000 g
# [16] = part C cohort 13, Day 1 (DUR 1 g alone)
# [17] = part C cohort 14, Day 1 (DUR 1 g alone), mean
# [18] = part D cohort 15, Day 1, DUR + SUL + IMI-CIL q6h, mean, n=10
# [19] = part D cohort 15, Day 11, DUR + SUL + IMI-CIL q6h, mean, n=10
smiles,measurement,setting,value
"CC1=C[C@@H]2CN(C(=O)N2OS(=O)(=O)O)[C@@H]1C(N)=O [DUR, Durlobactam]",drug-related AE: catheter site phlebitis,"[1]; DUR group, all subjects",5.3%
same,drug-related AE: headache,"[1]; DUR group, all subjects",10.6%
same,treatment-emergent AE: catheter site phlebitis,"[1]; DUR group, all subjects",8.5%
same,treatment-emergent AE: headache,"[1]; DUR group, all subjects",13.8%
same,Drug-related AE: Abdominal pain,[1]; [3],0 No. (%) of subjects
same,Drug-related AE: Dizziness,[1]; [3],4 (4.3) No. (%) of subjects
same,Drug-related AE: Dysgeusia,[1]; [3],2 (2.1) No. (%) of subjects
same,Drug-related AE: Nasal congestion,[1]; [3],2 (2.1) No. (%) of subjects
same,Drug-related AE: Nausea,[1]; [3],2 (2.1) No. (%) of subjects
same,Drug-related AE: Pain in extremity,[1]; [3],1 (1.1) No. (%) of subjects
same,Drug-related AE: Phlebitis,[1]; [3],2 (2.1) No. (%) of subjects
same,Drug-related AE: Polydipsia,[1]; [3],0 No. (%) of subjects
same,Drug-related AE: Pruritus,[1]; [3],2 (2.1) No. (%) of subjects
same,Drug-related AE: Somnolence,[1]; [3],1 (1.1) No. (%) of subjects
same,Drug-related AE: Upper respiratory infection,[1]; [3],1 (1.1) No. (%) of subjects
same,Drug-related AE: Vulvovaginal candidiasis,[1]; [3],2 (2.1) No. (%) of subjects
same,drug-related AE: catheter site phlebitis,[1]; [3],5 (5.3) No. (%) of subjects
same,drug-related AE: headache,[1]; [3],10 (10.6) No. (%) of subjects
same,overall safety and tolerability,[1]; alone or with SUL and/or IMI-CIL,generally safe and well tolerated
same,"changes in clinical laboratory values, vital signs, or ECG findings",[1]; any subject,No clinically significant changes
same,substrate of renal transporter OAT1,renal transporter OAT1,affinity of the substrate for the renal transporter OAT1
same,CL renal,"[2]; 0.25 g, mean, part B cohort 9, following the final dose on Day 8, 0.250 g",84.1 mL/min
same,CL renal,"[2]; 0.25 g, median, part B cohort 9, following the final dose on Day 8, 0.250 g",73.5 mL/min
same,CL renal,"[2]; 0.5 g, mean, part B cohort 10, following the final dose on Day 8, 0.500 g",95.6 mL/min
same,CL renal,"[2]; 0.5 g, median, part B cohort 10, first 48 hours, dose over 48 hours 4.00 g (8 doses)",291 mL/min
same,CL renal,"[2]; 0.5 g, median, part B cohort 10, following the final dose on Day 8, 0.500 g",96.2 mL/min
same,CL renal,"[2]; 1 g, mean, part A cohort 8 (elderly), single 1 g, n=5",55.4 mL/min
same,CL renal,"[2]; 1 g, mean, part B cohort 11, first 48 hours, dose over 48 hours 8.00 g (8 doses)",364 mL/min
same,CL renal,"[2]; 1 g, mean, part B cohort 11, following the final dose on Day 8, 1.000 g",93.6 mL/min
same,CL renal,"[2]; 1 g, median, part A cohort 8 (elderly), single 1 g, n=5",66 mL/min
same,CL renal,"[2]; 1 g, median, part B cohort 11, following the final dose on Day 8, 1.000 g",98 mL/min
same,CL renal,"[2]; 2 g, mean, part B cohort 9, first 48 hours, dose over 48 hours 2.00 g (8 doses)",238 mL/min
same,CL renal,"[2]; 2 g, mean, part B cohort 12, following the final dose on Day 8, 2.000 g",108 mL/min
same,CL renal,"[2]; 2 g, median, part B cohort 9, first 48 hours, dose over 48 hours 2.00 g (8 doses)",220 mL/min
same,CL renal,"[2]; 2 g, median, part B cohort 12, following the final dose on Day 8, 2.000 g",109 mL/min
same,CL renal,"[2]; 4 g, mean, part A cohort 6, single 4 g, n=4",132 mL/min
same,CL renal,"[2]; 4 g, mean, part B cohort 10, first 48 hours, dose over 48 hours 4.00 g (8 doses)",272 mL/min
same,CL renal,"[2]; 4 g, median, part A cohort 6, single 4 g, n=4",134 mL/min
same,CL renal,"[2]; 8 g, mean, part A cohort 7, single 8 g, n=5",109 mL/min
same,CL renal,"[2]; 8 g, median, part A cohort 7, single 8 g, n=5",130 mL/min
same,CL renal,"[2]; 8 g, median, part B cohort 11, first 48 hours, dose over 48 hours 8.00 g (8 doses)",392 mL/min
same,CL renal,"[2]; 16 g, mean, part B cohort 12, first 48 hours, dose over 48 hours 16.00 g (8 doses)",307 mL/min
same,CL renal,"[2]; 16 g, median, part B cohort 12, first 48 hours, dose over 48 hours 16.00 g (8 doses)",307 mL/min
same,CL renal,[2]; [4],81 mL/min
same,"Ae, mean",[2]; [5],3057.384 mg
same,"Ae, median",[2]; [5],3114.55 mg
same,"Fe, mean",[2]; [5],76.4345%
same,"Fe, median",[2]; [5],77.8635%
same,"Ae, mean",[2]; [6],4401.576 mg
same,"Ae, median",[2]; [6],4705.45 mg
same,"Fe, mean",[2]; [6],55.0196%
same,"Fe, median",[2]; [6],58.8180%
same,"Ae, mean",[2]; [7],582.604 mg
same,"Ae, median",[2]; [7],573.87 mg
same,"Fe, mean",[2]; [7],58.2604%
same,"Fe, median",[2]; [7],57.3870%
same,intact drug renally excreted,[2]; part A single dose,approximately 50%
same,"Ae, mean",[2]; [8],953.242 mg
same,"Ae, median",[2]; [8],1031.41 mg
same,"Fe, mean",[2]; [8],47.662%
same,"Fe, median",[2]; [8],51.57%
same,"Ae, mean",[2]; [9],141.184 mg
same,"Ae, median",[2]; [9],151.20 mg
same,"Fe, mean",[2]; [9],56.473%
same,"Fe, median",[2]; [9],60.48%
same,"Ae, mean",[2]; [10],2157.551 mg
same,"Ae, median",[2]; [10],2288.24 mg
same,"Fe, mean",[2]; [10],53.939%
same,"Fe, median",[2]; [10],57.21%
same,"Ae, mean",[2]; [11],337.614 mg
same,"Ae, median",[2]; [11],329.39 mg
same,"Fe, mean",[2]; [11],67.523%
same,"Fe, median",[2]; [11],65.88%
same,"Ae, mean",[2]; [12],4535.949 mg
same,"Ae, median",[2]; [12],5204.73 mg
same,"Fe, mean",[2]; [12],56.699%
same,"Fe, median",[2]; [12],65.06%
same,"Ae, mean",[2]; [13],657.112 mg
same,"Ae, median",[2]; [13],670.87 mg
same,"Fe, mean",[2]; [13],65.711%
same,"Fe, median",[2]; [13],67.09%
same,"Ae, mean",[2]; [14],8856.594 mg
same,"Ae, median",[2]; [14],7879.32 mg
same,"Fe, mean",[2]; [14],55.354%
same,"Fe, median",[2]; [14],49.25%
same,"Ae, mean",[2]; [15],1386.730 mg
same,"Ae, median",[2]; [15],1278.52 mg
same,"Fe, mean",[2]; [15],69.336%
same,"Fe, median",[2]; [15],63.93%
same,Ae,[2]; [16],409.644 (68.690) mg
same,Fe,[2]; [16],40.964 (6.869) %
same,Ae,[2]; [4],499.627 (95.305) mg
same,Fe,[2]; [4],49.963 (9.530) %
same,Ae,[2]; [17],426.643 mg
same,Fe,[2]; [17],42.664%
same,Ae,[2]; [18],3481.42 mg
same,Fe,[2]; [18],43.518%
same,Ae,[2]; [19],491.58 mg
same,Fe,[2]; [19],49.158%
